Values quoted from earlier work, collected in US20220409533A1, “LAG TIME REDUCTION/ICE SPRAY” (LTS LOHMANN THERAPIE-SYSTEME AG, priority 2019, published 2022).

Conditions: transdermal application

CN1CCCC1c1cccnc1 (stereo not shown) [nicotine]
resorption delay time (lag time): 6 h
